From ChEMBL document CHEMBL4043156, “Functionalization of peptide nucleolipid bioconjugates and their structure anti-cancer activity relationship studies” (Bioorg Med Chem Lett, 2017)
The source made the active and inactive calls. The rule behind the calls is not given here.

Tests used:
MM1.S [1] = assay: Induction of apoptosis in human MM1S cells at 2.5 uM after 24 hrs by Annexin V-FITC/propidium iodide based FACS analysis; type: functional, cell-based
MM1.S [2] = assay: Induction of apoptosis in human MM1S cells assessed as increase in necrotic cells at 2.5 uM after 24 hrs by Annexin V-FITC/propidium iodide based FACS analysis; type: functional, cell-based

Row | Compound | Activity (MM1.S [1]) | Activity (MM1.S [2])
1 | CNCCO[C@H]1C[C@H](n2cc(C)c(=O)[nH]c2=O)O[C@@H]1C(=O)NCCCC[C@@H](NC(=O)[C@@H](C)NC(=O)[C@@H](CCCCN)NC(=O)[C@@H](C)NC(=O)[C@@H](CC(C)C)NC(=O)[C@@H](CCCCN)NC(=O)[C@@H](C)NC(=O)[C@@H](CC(C)C)NC(=O)[C@@H](CCCCN)NC(=O)CCCCCN)C(=O)O | inactive | inactive
2 | Cc1cn([C@H]2C[C@H](OCCNCCCN)[C@@H](C(=O)NCCCC[C@@H](NC(=O)[C@@H](C)NC(=O)[C@@H](CCCCN)NC(=O)[C@@H](C)NC(=O)[C@@H](CC(C)C)NC(=O)[C@@H](CCCCN)NC(=O)[C@@H](C)NC(=O)[C@@H](CC(C)C)NC(=O)[C@@H](CCCCN)NC(=O)CCCCCN)C(=O)O)O2)c(=O)[nH]c1=O | inactive | inactive
3 | Cc1cn([C@H]2C[C@H](OCCNCCCNCCCCNCCCN)[C@@H](C(=O)NCCCC[C@@H](NC(=O)[C@@H](C)NC(=O)[C@@H](CCCCN)NC(=O)[C@@H](C)NC(=O)[C@@H](CC(C)C)NC(=O)[C@@H](CCCCN)NC(=O)[C@@H](C)NC(=O)[C@@H](CC(C)C)NC(=O)[C@@H](CCCCN)NC(=O)CCCCCN)C(=O)O)O2)c(=O)[nH]c1=O | inactive | inactive
4 | Cc1cn([C@H]2C[C@H](OCCNCc3c[nH]cn3)[C@@H](C(=O)NCCCC[C@@H](NC(=O)[C@@H](C)NC(=O)[C@@H](CCCCN)NC(=O)[C@@H](C)NC(=O)[C@@H](CC(C)C)NC(=O)[C@@H](CCCCN)NC(=O)[C@@H](C)NC(=O)[C@@H](CC(C)C)NC(=O)[C@@H](CCCCN)NC(=O)CCCCCN)C(=O)O)O2)c(=O)[nH]c1=O | Active | Active
5 | CCCCCCCCNCCO[C@H]1C[C@H](n2cc(C)c(=O)[nH]c2=O)O[C@@H]1C(=O)NCCCC[C@@H](NC(=O)[C@@H](C)NC(=O)[C@@H](CCCCN)NC(=O)[C@@H](C)NC(=O)[C@@H](CC(C)C)NC(=O)[C@@H](CCCCN)NC(=O)[C@@H](C)NC(=O)[C@@H](CC(C)C)NC(=O)[C@@H](CCCCN)NC(=O)CCCCCN)C(=O)O | inactive | inactive
